For one experiment, the target named is LSD1 (Homo sapiens (Human), UniProt O60341). Briefly: In vitro enzyme inhibition assay - LSD1 (HTRF). In kind it is biochemical. Background: In TR-FRET formats the signal depends on donor and acceptor labels being close together.
The next experiment has as its target pan-HDAC. Kind of experiment: In vitro enzyme inhibition assay - HDAC (HDAC-Glo I/II), pan-HDAC. In kind it is biochemical. In a few lines:
(§1)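 Inhibition was measured with the HDAC-Glo I/II luminescent assay, testing compound as an 8-point, 5-fold dilution series from a 1 mM DMSO stock. Luminescence (RLU) was normalized to no-inhibitor and no-enzyme controls, and IC50 was derived by four-parameter variable-slope fitting.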

The target of the next experiment is HDAC1 (Homo sapiens (Human), UniProt Q13547). Briefly: In vitro enzyme inhibition assay - HDAC (HDAC-Glo I/II), HDAC1. In kind it is biochemical. The following applies: read-out: HDAC IC50 (nM) HDAC 1. In outline:
as §1

A further experiment addresses HDAC8 (Homo sapiens (Human), UniProt Q9BY41). Briefly: In vitro enzyme inhibition assay - HDAC (HDAC-Glo I/II), HDAC8. In kind it is biochemical. The following applies: read-out: HDAC IC50 (nM) HDAC 8. In outline:
as §1

The next experiment deals with NCI-H1417 cells. Briefly: In vitro cell inhibition assay - H1417 cell proliferation (CellTiter-Glo). In kind it is cell-based. Conditions: Homo sapiens, NCI-H1417, H1417 small cell lung cancer cell proliferation. In a few lines: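 Cells exposed to 8 compound concentrations (5-fold dilutions) in BEGM with 10% FBS for 7 days at 37° C., 5% CO2. Viable cells measured by CellTiter-Glo luminescence; inhibition versus no-inhibitor and no-cell controls, IC50 fitted.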
A general note: In ATP-based viability assays light output follows the ATP content of the culture.

The subject of the next experiment is NCI-H69 cells. Briefly: In vitro cell inhibition assay - NCI-H69 cell proliferation (CellTiter-Glo). In kind it is cell-based. The following applies: Homo sapiens, NCI-H69, H69 small cell lung cancer cell proliferation. In a few lines: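 NCI-H69 cells seeded at 1×10^3 per well overnight, then given 8 compound concentrations (5-fold dilutions) in RPMI-640 with 20% FBS for 7 days at 37° C., 5% CO2. Viable cells by CellTiter-Glo luminescence; IC50 fitted from inhibition rate versus no-inhibitor and no-cell controls.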

The test system of a further experiment is DU145 cells. Kind of experiment: In vitro cell inhibition assay - DU145 cell proliferation (CellTiter-Glo). In kind it is cell-based. Conditions: Homo sapiens, DU-145, Du145 prostate cancer cell proliferation. In outline: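 Viability read-out was CellTiter-Glo luminescence after a 6-day, 37° C exposure of DU145 cells (1×10^3/well, 10% FBS RPMI-640) to 8 compound concentrations in 5-fold steps.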

The subject of a further experiment is NCI-H526 cells. Briefly: In vitro cell inhibition assay - NCI-H526 cell proliferation (CellTiter-Glo). Conditions: Homo sapiens, NCI-H526, 120 h, H526 small cell lung cancer cell proliferation, 5 days. In kind it is cell-based. In a few lines: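 NCI-H526 cells plated at 1×10^3 per well overnight, then treated with 8 concentrations (5-fold dilutions) in RPMI-640 with 10% FBS for 5 days at 37° C., 5% CO2. Viable cells quantified by CellTiter-Glo luminescence; IC50 fitted from inhibition rates relative to no-inhibitor and no-cell controls.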

The structures appear in SMILES notation. Where a name gives a salt, the structure may show the parent alone.

Chain of HDAC8 (Q9BY41 whole entry): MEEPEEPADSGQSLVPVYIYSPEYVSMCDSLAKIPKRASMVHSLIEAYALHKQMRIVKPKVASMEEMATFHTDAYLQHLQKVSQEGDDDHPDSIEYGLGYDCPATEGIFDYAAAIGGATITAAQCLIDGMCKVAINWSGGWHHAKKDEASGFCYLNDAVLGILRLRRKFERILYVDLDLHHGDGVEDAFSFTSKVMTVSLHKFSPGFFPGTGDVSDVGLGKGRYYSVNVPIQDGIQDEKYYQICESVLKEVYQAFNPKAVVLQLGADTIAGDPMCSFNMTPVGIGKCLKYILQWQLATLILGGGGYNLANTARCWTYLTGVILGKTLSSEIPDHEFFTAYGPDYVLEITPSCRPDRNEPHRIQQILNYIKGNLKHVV
Chain of HDAC1 (Q13547 whole entry): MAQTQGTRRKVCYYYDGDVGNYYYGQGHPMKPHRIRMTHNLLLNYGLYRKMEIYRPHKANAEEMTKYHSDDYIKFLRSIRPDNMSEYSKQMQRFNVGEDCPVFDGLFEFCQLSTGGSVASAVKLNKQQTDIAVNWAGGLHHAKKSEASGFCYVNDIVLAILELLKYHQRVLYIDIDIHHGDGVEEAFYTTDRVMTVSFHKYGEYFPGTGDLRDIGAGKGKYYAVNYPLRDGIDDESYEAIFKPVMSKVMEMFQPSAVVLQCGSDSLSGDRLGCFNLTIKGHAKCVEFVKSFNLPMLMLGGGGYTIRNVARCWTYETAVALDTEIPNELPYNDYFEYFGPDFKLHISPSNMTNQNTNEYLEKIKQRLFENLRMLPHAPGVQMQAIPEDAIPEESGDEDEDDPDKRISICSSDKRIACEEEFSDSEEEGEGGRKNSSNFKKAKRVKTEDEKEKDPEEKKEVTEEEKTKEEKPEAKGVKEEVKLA

In the case of `N#Cc1ccc(-c2cnc(N3CCC(NCc4ccc(/C=C/C(=O)NO)cc4)CC3)c(C#N)c2-c2ccc(C#N)c(F)c2)cc1O` [Example 113, (E)-3-(4-(((1-(3-Cyano-4-(4-cyano-3-fluorophenyl)-5-(4-cyano-3-hydroxyphenyl)pyridin-2-yl)piperidin-4-yl)amino)methyl)phenyl)-N-hydroxyacrylamide formate], the IC50 was 2 nM on LSD1; 25 nM against pan-HDAC; 17.3 nM on HDAC1; 72.7 nM at HDAC8; 29.8 nM with NCI-H1417 cells; 76.3 nM in the experiment on NCI-H69 cells. Further, the 50% inhibitory concentration (IC50) in the experiment with DU145 cells stood at 130 nM; in the experiment with NCI-H526 cells, 80 nM.
`COc1ccc(-c2cnc(N3CCC(NCc4cccc(/C=C/C(=O)NO)c4)CC3)c(C#N)c2-c2ccc(C#N)c(F)c2)cc1O` [Example 114, (E)-3-(3-(3-Cyano-4-(4-cyano-3-fluorophenyl)-5-(3-hydroxy-4-methoxyphenyl)pyridin-2-yl)piperidin-4-yl)amino)methyl) phenyl)-N-hydroxyacrylamide formate]: the half-maximal inhibitory concentration (IC50) worked out at 0.97 nM against LSD1; 175 nM against pan-HDAC; 178 nM on HDAC1; 571 nM at HDAC8; 9.4 nM in the experiment on NCI-H1417 cells; 78.2 nM with NCI-H69 cells. The IC50 in the experiment on DU145 cells is 391 nM; in the experiment with NCI-H526 cells, 155 nM.
Take `N#Cc1ccc(-c2c(-c3ccc(OC(F)(F)F)c(O)c3)cnc(N3CCC(NCc4ccc(/C=C/C(=O)NO)cc4)CC3)c2C#N)cc1F` [Example 116, (E)-3-(4-(1-(3-Cyano-4-(4-cyano-3-fluorophenyl)-5-(3-hydroxy-4-(trifluoromethoxy)phenyl)pyridin-2-yl)piperidin-4-yl)amino)methyl) phenyl)-N-hydroxyacrylamide formate]: the IC50 worked out at 1.82 nM against LSD1; 12.7 nM at pan-HDAC; 5.59 nM at HDAC1; 212 nM at HDAC8; 4.89 nM in the experiment on NCI-H1417 cells; 33.8 nM with NCI-H69 cells. Besides, the half-maximal inhibitory concentration (IC50) with DU145 cells was determined as 82 nM; in the experiment with NCI-H526 cells, 33.8 nM.
For the compound `COc1ccc(-c2cnc(N3CCC(NCc4ccc(/C=C/C(=O)NO)cc4)CC3)c(C#N)c2-c2ccc(C#N)cc2)cc1O` [Example 118, (E)-3-(4-((1-(3-Cyano-4-(4-cyanophenyl)-5-(3-hydroxy-4-methoxyphenyl)pyridin-2-yl)piperidin-4-yl)amino)methyl) phenyl)-N-hydroxyacrylamide formate], the IC50 against LSD1 amounted to 0.58 nM; against pan-HDAC, 0.75 nM; at HDAC1, 0.44 nM; on HDAC8, 30.3 nM; in the experiment on NCI-H1417 cells, 2.8 nM; in the experiment with NCI-H69 cells it was 3.24 nM. Further, the IC50 in the experiment on DU145 cells came to 11.8 nM; with NCI-H526 cells, 8.09 nM.
As to `N#Cc1ccc(-c2c(-c3ccc(OC(F)F)c(O)c3)cnc(N3CCC(NCc4ccc(/C=C/C(=O)NO)cc4)CC3)c2C#N)cc1F` [Example 124, (E)-3-(4-(((1-(3-Cyano-4-(4-cyano-3-fluorophenyl)-5-(4-(difluoromethoxy)-3-hydroxyphenyl)pyridin-2-yl))piperidin-4-yl)amino)methyl) phenyl)-N-hydroxyacrylamide formate], the IC50 on LSD1 stood at 1.63 nM; on pan-HDAC it was 7.69 nM; at HDAC1, 3.95 nM; at HDAC8, 179 nM; with NCI-H1417 cells, 3.34 nM; in the experiment on NCI-H69 cells, 18.3 nM. The figures for the IC50 in the experiment on DU145 cells and with NCI-H526 cells were 30.5 nM and 20.6 nM, respectively.
On to `N#Cc1ccc(-c2c(-c3ccc(Br)c(O)c3)cnc(N3CCC(NCc4ccc(/C=C/C(=O)NO)cc4)CC3)c2C#N)cc1F` [Example 127, (E)-3-(4-(((1-(5-(4-Bromo-3-hydroxyphenyl)-3-cyano-4-(4-cyano-3-fluorophenyl)pyridin-2-yl)piperidin-4-yl)amino)methyl)phenyl)-N-hydroxyacrylamide formate], for which the IC50 came to 1.2 nM against LSD1; 12.4 nM at pan-HDAC; 5.82 nM at HDAC1; 423 nM on HDAC8; 2.65 nM in the experiment on NCI-H1417 cells; 8.85 nM in the experiment on NCI-H69 cells. For the same compound, the values for the IC50 with DU145 cells and with NCI-H526 cells were 15.5 nM and 15.4 nM, respectively.
For `COc1cc(F)c(-c2cnc(N3CCC(NCc4ccc(/C=C/C(=O)NO)cc4)CC3)c(C#N)c2-c2ccc(C#N)c(F)c2)cc1O` [Example 130, (E)-3-(4-((1-(3-Cyano-4-(4-cyano-3-fluorophenyl)-5-(2-fluoro-5-hydroxy-4-methoxyphenyl)pyridin-2-yl)piperidin-4-yl)amino)methyl) phenyl)-N-hydroxyacrylamide formate], the IC50 was determined as 1.89 nM on LSD1; 6.13 nM at pan-HDAC; 0.77 nM at HDAC1; 220 nM on HDAC8; 1.09 nM in the experiment on NCI-H1417 cells; 25.2 nM in the experiment on NCI-H69 cells. For the same compound, the IC50 is 25 nM in the experiment on DU145 cells and 22.8 nM in the experiment with NCI-H526 cells.
In the case of `N#Cc1ccc(-c2c(-c3ccc(CO)c(O)c3)cnc(N3CCC(NCc4ccc(/C=C/C(=O)NO)cc4)CC3)c2C#N)cc1F` [Example 131, (E)-3-(4-(((1-(3-Cyano-4-(4-cyano-3-fluorophenyl)-5-(3-hydroxy-4-(hydroxymethyl)phenyl)pyridin-2-yl)piperidin-4-yl)amino)methyl)phenyl)-N-hydroxyacrylamide formate], the IC50 was found to be 1.31 nM on LSD1; 1.57 nM at pan-HDAC; 0.22 nM on HDAC1; 46.6 nM at HDAC8; 0.62 nM in the experiment with NCI-H1417 cells; 2.59 nM in the experiment with NCI-H69 cells. In addition, the IC50 in the experiment with DU145 cells came to 7.09 nM; with NCI-H526 cells, 3.54 nM.
As to `COc1ccc(-c2cnc(N3CCC(NCc4cnc(/C=C/C(=O)NO)cn4)CC3)c(C#N)c2-c2ccc(C#N)c(F)c2)cc1O` [Example 133, (E)-3-(5-(((1-(3-Cyano-4-(4-cyano-3-fluorophenyl)-5-(3-hydroxy-4-methoxyphenyl)pyridin-2-yl)piperidin-4-yl)amino)methyl)pyrazin-2-yl)-N-hydroxyacrylamide trifluoroacetate], the IC50 against LSD1 came out at 22 nM; on pan-HDAC, 11.8 nM; at HDAC1, 1.45 nM; on HDAC8 it was 140 nM; with NCI-H1417 cells it was 5.42 nM; in the experiment on NCI-H69 cells, 25.5 nM. Besides, the figures for the IC50 in the experiment on DU145 cells and in the experiment with NCI-H526 cells were 128 nM and 45.8 nM, respectively.
Regarding `COc1ccc(-c2cnc(N3CCC(NCc4ccc(/C=C/C(=O)NO)cc4)CC3)c(C#N)c2-c2ccc(C#N)cc2F)cc1O` [Example 134, (E)-3-(4-(((1-(3-Cyano-4-(4-cyano-2-fluorophenyl)-5-(3-hydroxy-4-methoxyphenyl)pyridin-2-yl)piperidin-4-yl)amino)methyl)phenyl)-N-hydroxyacrylamide formate], the IC50 at LSD1 worked out at 13.6 nM; at pan-HDAC it was 3.55 nM; at HDAC1, 0.32 nM; at HDAC8, 46 nM; in the experiment on NCI-H1417 cells it was 5.1 nM; with NCI-H69 cells it was 8.37 nM. Moreover, the values for the IC50 in the experiment with DU145 cells and in the experiment on NCI-H526 cells were 20.3 nM and 13.8 nM, respectively.
`COc1ccc(-c2cnc(N3CCC(NCc4ncc(/C=C/C(=O)NO)cn4)CC3)c(C#N)c2-c2ccc(C#N)c(F)c2)cc1O` [Example 135, (E)-3-(2-(((1-(3-Cyano-4-(4-cyano-3-fluorophenyl)-5-(3-hydroxy-4-methoxyphenyl)pyridin-2-yl)piperidin-4-yl)amino)methyl)pyrimidin-5-yl)-N-hydroxyacrylamide formate]: the IC50 on LSD1 turned out to be 3.16 nM; at pan-HDAC, 39.7 nM; on HDAC1, 17.3 nM; at HDAC8 it was 1010 nM; in the experiment with NCI-H1417 cells it was 6 nM; in the experiment on NCI-H69 cells it was 199 nM. The IC50 in the experiment on DU145 cells is 1580 nM; with NCI-H526 cells, 200 nM.
Consider `N#Cc1ccc(-c2c(-c3ccc(O)c(O)c3)cnc(N3CCC(NCc4ccc(/C=C/C(=O)NO)cc4)CC3)c2C#N)cc1F` [Example 137, (E)-3-(4-(((1-(3-Cyano-4-(4-cyano-3-fluorophenyl)-5-(3,4-dihydroxyphenyl)pyridin-2-yl)piperidin-4-yl)amino)methyl)phenyl)-N-hydroxyacrylamide hydrochloride], for which the IC50 against LSD1 is 27.8 nM; on pan-HDAC it was 6.04 nM; at HDAC1 it was 0.52 nM; on HDAC8, 107 nM; with NCI-H1417 cells, 5.43 nM; with NCI-H69 cells it was 7.01 nM. The IC50 in the experiment on DU145 cells is 63.5 nM; in the experiment with NCI-H526 cells, 22.9 nM.

For orientation: IC50 means the concentration that inhibits the measured activity by half.

For the origin of these results see patent publication US20250304549A1, “HYDROXYAMIDE DERIVATIVE AND USE THEREOF” (SICHUAN HUIYU PHARMACEUTICAL CO., LTD., priority 2022, published 2025).
